The record followed here is US7378413B2, “2-amino-3-(alkyl)-pyrimidone derivatives” (Sanofi Aventis, priority 2000, dated 2008).

For the compound `Cc1ccc(CCNc2nc(-c3ccncc3)cc(=O)n2C)cc1` [Compound 16, 2-[[2-(4-methylphenyl)ethyl]amino]-3-methyl-6-pyridin-4-ylpyrimidin-4(3H)-one], the melting point lay in the range of 184.7 to 185 °C.
With `Cn1c(NCCc2cccc(Cl)c2)nc(-c2ccncc2)cc1=O` [Compound 18, 2-[[2-(3-chlorophenyl)ethyl]amino]-3-methyl-6-pyridin-4-ylpyrimidin-4(3H)-one], the melting point fell in the range of 162.8 to 163 °C.
Compound `Cn1c(NCCc2cccs2)nc(-c2ccncc2)cc1=O` [Compound 19, 2-[[2-(thiophen-2-yl)ethyl]amino]-3-methyl-6-pyridin-4-ylpyrimidin-4(3H)-one] returned a melting point of 171.7 to 171.9 °C.
To `Cn1c(NCCc2ccc(OCc3ccccc3)cc2)nc(-c2ccncc2)cc1=O` [Compound 21, 2-[[2-(4-phenylmethoxyphenyl)ethyl]amino]-3-methyl-6-pyridin-4-ylpyrimidin-4(3H)-one] belongs 169.7 to 169.8 °C; to `Cn1c(NCCc2ccc(-c3ccccc3)cc2)nc(-c2ccncc2)cc1=O` [Compound 22, 2-[[2-(4-phenylphenyl)ethyl]amino]-3-methyl-6-pyridin-4-ylpyrimidin-4(3H)-one], 175.4 to 175.6 °C; to `O=c1cc(-c2ccncc2)nc(NCCCc2ccccc2)n1Cc1ccccc1` [Compound 28, 2-[[3-(phenyl)propyl]amino]-3-phenylmethyl-6-pyridin-4-ylpyrimidin-4(3H)-one], 218 to 221 °C.
`COc1ccc2[nH]cc(CCNc3nc(-c4ccncc4)cc(=O)n3C)c2c1` [Compound 30, 2-[[2-(5-methoxy-1H-indol-3-yl)ethyl]amino]-3-methyl-6-pyridin-4-ylpyrimidin-4(3H)-one] yielded a melting point of 242.7 to 243 °C.
Take `Cn1c(NCCc2c[nH]c3ccc(OCc4ccccc4)cc23)nc(-c2ccncc2)cc1=O` [Compound 31, 2-[[2-(5-phenylmethoxy-1H-indol-3-yl)ethyl]amino]-3-methyl-6-pyridin-4-ylpyrimidin-4(3H)-one]: the melting point was 168.4 to 168.6 °C.
In turn, `Cc1cccc2c(CCNc3nc(-c4ccncc4)cc(=O)n3C)c[nH]c12` [Compound 32, 2-[[2-(7-methyl-1H-indol-3-yl)ethyl]amino]-3-methyl-6-pyridin-4-ylpyrimidin-4 (3H)-one] gave a melting point of 217.2 to 217.3 °C.
To `Cn1c(NC2Cc3ccccc3C2)nc(-c2ccncc2)cc1=O` [Compound 37, 2-[(indan-2-yl)amino]-3-methyl-6-pyridin-4-ylpyrimidin-4(3H)-one] belongs 211.5 to 211.8 °C; to `Cn1c(NC2CCCCC2)nc(-c2ccncc2)cc1=O` [Compound 46, 2-Cyclohexylamino-3-methyl-6-pyridin-4-yl-3H-pyrimidin-4-one], 268 to 270 °C.
As to `CCCCNc1nc(-c2ccncc2)cc(=O)n1C` [Compound 47, 2-Butylamino-3-methyl-6-pyridin-4-yl-3H-pyrimidin-4-one], the melting point is 180 to 182 °C.
Take `CCCCCNc1nc(-c2ccncc2)cc(=O)n1C` [Compound 48, 3-Methyl-2-pentylamino-6-pyridin-4-yl-3H-pyrimidin-4-one]: the melting point fell in the range of 157 to 159 °C.
With `CCCCCCNc1nc(-c2ccncc2)cc(=O)n1C` [Compound 49, 2-Hexylamino-3-methyl-6-pyridin-4-yl-3H-pyrimidin-4-one], the melting point is 133 to 135 °C.
Consider `CCCCCCCNc1nc(-c2ccncc2)cc(=O)n1C` [Compound 50, 2-Heptylamino-3-methyl-6-pyridin-4-yl-3H-pyrimidin-4-one], for which the melting point fell in the range of 121 to 123 °C.
Turning to `CCCCCCCCCNc1nc(-c2ccncc2)cc(=O)n1C` [Compound 52, 3-Methyl-2-nonylamino-6-pyridin-4-yl-3H-pyrimidin-4-one], the melting point fell in the range of 113 to 115 °C.
Take `CC(C)CCNc1nc(-c2ccncc2)cc(=O)n1C` [Compound 55, 3-Methyl-2-(3-methyl-butylamino)-6-pyridin-4-yl-3H-pyrimidin-4-one]: the melting point is 213 to 217 °C.
For the compound `Cn1c(NCC2CCCCC2)nc(-c2ccncc2)cc1=O` [Compound 56, 2-(Cyclohexylmethyl-amino)-3-methyl-6-pyridin-4-yl-3H-pyrimidin-4-one], the melting point lay within 218 to 220 °C.
For `CCCOCCNc1nc(-c2ccncc2)cc(=O)n1C` [Compound 57, 3-Methyl-2-(2-propoxy-ethylamino)-6-pyridin-4-yl-3H-pyrimidin-4-one], the melting point lay in the range of 147 to 150 °C.
In turn, `Cn1c(NCCCC2CCCCC2)nc(-c2ccncc2)cc1=O` [Compound 58, 2-(3-Cyclohexyl-propylamino)-3-methyl-6-pyridin-4-yl-3H-pyrimidin-4-one] displayed a melting point of 177 to 180 °C.
Consider `CCOCCCNc1nc(-c2ccncc2)cc(=O)n1C` [Compound 59, 2-(3-Ethoxy-propylamino)-3-methyl-6-pyridin-4-yl-3H-pyrimidin-4-one], for which the melting point fell in the range of 118 to 120 °C.
On to `Cn1c(NCCCCCO)nc(-c2ccncc2)cc1=O` [Compound 61, 2-(5-Hydroxy-pentylamino)-3-methyl-6-pyridin-4-yl-3H-pyrimidin-4-one], for which the melting point lay in the range of 164 to 165 °C.
For `Cn1c(NCCCCO)nc(-c2ccncc2)cc1=O` [Compound 62, 2-(4-Hydroxy-butylamino)-3-methyl-6-pyridin-4-yl-3H-pyrimidin-4-one], the melting point lay in the range of 159 to 161 °C.
On to `CC(C)OCCCNc1nc(-c2ccncc2)cc(=O)n1C` [Compound 63, 2-(3-Isopropoxy-propylamino)-3-methyl-6-pyridin-4-yl-3H-pyrimidin-4-one], for which the melting point was 95 to 98 °C.
Consider `CCCOCCCNc1nc(-c2ccncc2)cc(=O)n1C` [Compound 64, 3-Methyl-2-(3-propoxy-propylamino)-6-pyridin-4-yl-3H-pyrimidin-4-one], for which the melting point lay in the range of 107 to 109 °C.
On to `Cn1c(NCCC2CCCC2)nc(-c2ccncc2)cc1=O` [Compound 66, 2-(2-Cyclopentyl-ethylamino)-3-methyl-6-pyridin-4-yl-3H-pyrimidin-4-one], for which the melting point is 190 to 194 °C.
Turning to `Cn1c(NCCCN2CCCCC2)nc(-c2ccncc2)cc1=O` [Compound 67, 3-Methyl-2-(3-piperidin-1-yl-propylamino)-6-pyridin-4-yl-3H-pyrimidin-4-one], the melting point lay within 162 to 163 °C.
For `CC(=O)OC(CNc1nc(-c2ccncc2)cc(=O)n1C)c1ccccc1` (centres unmarked) [Compound 69, Acetic acid 2-(1-methyl-6-oxo-4-pyridin-4-yl-1 ,6-dihydro-pyrimidin-2-ylamino)-1-phenyl-ethyl ester] the value was 81 to 84 °C; for `Cn1c(NCCC23CC4CC(CC(C4)C2)C3)nc(-c2ccncc2)cc1=O` [Compound 70, 2-(2-Adamantan-1-yl-ethylamino)-3-methyl-6-pyridin-4-yl-3H-pyrimidin-4-one], 107 to 111 °C; for `Cn1c(NCc2cccc(OCCCO)c2)nc(-c2ccncc2)cc1=O` [Compound 71, 2-[3-(3-Hydroxy-propoxy)-benzylamino]-3-methyl-6-pyridin-4-yl-3H-pyrimidin-4-one], 98 to 101 °C.
For `CC(=O)OCCCOc1cccc(CNc2nc(-c3ccncc3)cc(=O)n2C)c1` [Compound 73, Acetic acid 3-{3-[(1-methyl-6-oxo-4-pyridin-4-yl-1 ,6-dihydro-pyrimidin-2-ylamino)-methyl]-phenoxy}-propyl ester], the melting point lay within 198 to 201 °C.
`CN(C)CCCOc1cccc(CNc2nc(-c3ccncc3)cc(=O)n2C)c1` [Compound 74, 2-[3-(3-Dimethylamino-propoxy)-benzylamino]-3-methyl-6-pyridin-4-yl-3H-pyrimidin-4-one] displayed a melting point of 80 to 82 °C.
For the compound `Cn1c(NCCCc2ccccc2)nc(-c2ccncc2)cc1=O` [Compound 78, 3-Methyl-2-(3-phenyl-propylamino)-6-pyridin-4-yl-3H-pyrimidin-4-one], the melting point was 122 to 124 °C.
The compound `O=c1cc(-c2ccncc2)nc(NCCCc2ccccc2)n1CCO` [Compound 86, 3-(2-Hydroxy-ethyl)-2-(3-phenyl-propylamino)-6-pyridin-4-yl-3H-pyrimidin-4-one] showed a melting point of 143 to 145 °C.
For the compound `Cn1c(NCCSc2ccccc2)nc(-c2ccncc2)cc1=O` [Compound 92, 3-Methyl-2-(2-phenylsulfanyl-ethylamino)-6-pyridin-4-yl-3H-pyrimidin-4-one], the melting point lay in the range of 162 to 168 °C.
Turning to `Cn1c(NCCNc2ccccc2)nc(-c2ccncc2)cc1=O` [Compound 93, 3-Methyl-2-(2-phenylamino-ethylamino)-6-pyridin-4-yl-3H-pyrimidin-4-one], the melting point lay in the range of 102 to 105 °C.
For `Cn1c(NCCOc2ccccc2)nc(-c2ccncc2)cc1=O` [Compound 94, 3-Methyl-2-(2-phenoxy-ethylamino)-6-pyridin-4-yl-3H-pyrimidin-4-one], the melting point is 193 to 194 °C.
For `Cn1c(NCCc2ccccn2)nc(-c2ccncc2)cc1=O` [Compound 97, 3-Methyl-6-pyridin-4-yl-2(2-pyridin-2-yl-ethylamino)-3H-pyrimidin-4-one] the value was 154 to 156 °C (dec.).
